The supplement of paper PMC10307832

Tests used:
Assay in all cases: relative viability (nuclei count vs DMSO), 5 days (fraction); higher = more cells survive
[1] = compound: CCN1C(=O)C2=CC(=C(N=C2N(C1=O)C3CC3)N)C(=O)N
How it was run: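 Hoechst staining, done together with fixation and permeabilisation, marked nuclei for 4× imaging and MetaXpress counting. This followed 5 days without medium change after lung cancer cell lines, kept overnight at 37 °C in 1536-well plates, were pinned with five library-drug doses (not always all listed) spaced by √10 on vehicle-anchored plates. Viability is the ratio of treated-well to vehicle-well nuclei, expressed as a median across plates. Plates passed only at control CV below 25% with at least one doubling.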

[2] = compound: CCN1C(=O)C2=CC(=C(N=C2N(C1=O)C3CC3)N)C(=O)N + Nc1nc2[nH]cc(CCc3ccc(C(=O)N[C@@H](CCC(=O)O)C(=O)O)cc3)c2c(=O)[nH]1 [Pemetrexed] (partner 0.2 µM)
How it was run: (§1)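 After 5 days of treatment, lung cancer cells in 1536-well plates were fixed and stained in a single step (final 0.05% Triton X-100, 1% formaldehyde, 1 ug/ml Hoechst) and their nuclei counted on 4× images. Treatment had been applied by pin tool the day after seeding as one drug alone or as a fixed anchor-drug dose with five library-drug doses (not always all listed) in √10 steps. Relative viability is the nuclei count of treated wells divided by that of vehicle wells, and values are medians of duplicate plates.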

[3] = compound: CCN1C(=O)C2=CC(=C(N=C2N(C1=O)C3CC3)N)C(=O)N + Cc1nc(Nc2ncc(C(=O)Nc3c(C)cccc3Cl)s2)cc(N2CCN(CCO)CC2)n1 [Dasatinib] (partner 0.075 µM)
How it was run: as §1

[4] = compound: CCN1C(=O)C2=CC(=C(N=C2N(C1=O)C3CC3)N)C(=O)N + COc1cc2c(Oc3ccc(NC(=O)C4(C(=O)Nc5ccc(F)cc5)CC4)cc3F)ccnc2cc1OCCCN1CCOCC1 [Foretinib] (partner 0.25 µM)
How it was run: as §1

[5] = compound: CCN1C(=O)C2=CC(=C(N=C2N(C1=O)C3CC3)N)C(=O)N + CS(=O)(=O)N1CCN(Cc2cc3nc(-c4cccc5[nH]ncc45)nc(N4CCOCC4)c3s2)CC1 [Pictilisib] (partner 1 µM)
How it was run: as §1

[6] = compound: CCN1C(=O)C2=CC(=C(N=C2N(C1=O)C3CC3)N)C(=O)N + C[C@@H](Oc1cc(-c2cnn(C3CCNCC3)c2)cnc1N)c1c(Cl)ccc(F)c1Cl [Crizotinib] (partner 1 µM)
How it was run: as §1

[7] = compound: CCN1C(=O)C2=CC(=C(N=C2N(C1=O)C3CC3)N)C(=O)N + Cc1nc(NC(=O)N2CCC[C@H]2C(N)=O)sc1-c1ccnc(C(C)(C)C(F)(F)F)c1 [Alpelisib] (partner 2 µM)
How it was run: as §1

[8] = compound: CCN1C(=O)C2=CC(=C(N=C2N(C1=O)C3CC3)N)C(=O)N + CC(C)C[C@H](NC(=O)[C@H](Cc1ccccc1)NC(=O)c1cnccn1)B(O)O [Bortezomib] (partner 0.002 µM)
How it was run: as §1

[9] = compound: CCN1C(=O)C2=CC(=C(N=C2N(C1=O)C3CC3)N)C(=O)N + COc1cccc2cc(-c3nc([C@H]4CC[C@H](C(=O)O)CC4)n4ncnc(N)c34)[nH]c12 [OSI-027] (partner 0.5 µM)
How it was run: as §1

[10] = compound: CCN1C(=O)C2=CC(=C(N=C2N(C1=O)C3CC3)N)C(=O)N + C[C@]1(O)C[C@@H](c2nc(-c3ccc4ccc(-c5ccccc5)nc4c3)c3c(N)nccn32)C1 [Linsitinib] (partner 1 µM)
How it was run: as §1

[11] = compound: CCN1C(=O)C2=CC(=C(N=C2N(C1=O)C3CC3)N)C(=O)N + N=C(N)NC(=N)NCCc1ccccc1 [Phenformin] (partner 250 µM)
How it was run: as §1

[12] = compound: CCN1C(=O)C2=CC(=C(N=C2N(C1=O)C3CC3)N)C(=O)N + CS(=O)(=O)CCNCc1ccc(-c2ccc3ncnc(Nc4ccc(OCc5cccc(F)c5)c(Cl)c4)c3c2)o1 [Lapatinib] (partner 2 µM)
How it was run: as §1

[13] = compound: CCN1C(=O)C2=CC(=C(N=C2N(C1=O)C3CC3)N)C(=O)N + CCNC(=O)c1noc(-c2cc(C(C)C)c(O)cc2O)c1-c1ccc(CN2CCOCC2)cc1 [Luminespib] (partner 0.01 µM)
How it was run: as §1

[14] = compound: CCN1C(=O)C2=CC(=C(N=C2N(C1=O)C3CC3)N)C(=O)N + Cc1cc(Nc2cc(N3CCN(C)CC3)nc(Sc3ccc(NC(=O)C4CC4)cc3)n2)n[nH]1 [Tozasertib] (partner 0.1 µM)
How it was run: as §1

With NCI-H1563 the relative viability ([1]; 0.253 µM) was 0.975, the relative viability ([1]; 0.8 µM) was 1 and the relative viability ([1]; 2.53 µM) was 0.955. The relative viability ([1]; 8 µM) was 0.929, the relative viability ([2]; first compound 0.253 µM) was 0.762 and the relative viability ([2]; first compound 0.8 µM) was 0.799. It also gave a relative viability ([2]; first compound 2.53 µM) of 0.965, a relative viability ([2]; first compound 8 µM) of 0.742 and a relative viability ([3]; first compound 0.253 µM) of 0.467. The relative viability ([3]; first compound 0.8 µM) was 0.41, the relative viability ([3]; first compound 2.53 µM) was 0.46 and the relative viability ([3]; first compound 8 µM) was 0.422. For the same cell line, the relative viability ([4]; first compound 0.253 µM) was 0.901, the relative viability ([4]; first compound 0.8 µM) was 0.926 and the relative viability ([4]; first compound 2.53 µM) was 0.933. The relative viability ([4]; first compound 8 µM) was 1.01, the relative viability ([5]; first compound 0.253 µM) was 0.648 and the relative viability ([5]; first compound 0.8 µM) was 0.618. It also gave a relative viability ([5]; first compound 2.53 µM) of 0.728, a relative viability ([5]; first compound 8 µM) of 0.616 and a relative viability ([6]; first compound 0.253 µM) of 0.907. It also gave a relative viability ([6]; first compound 0.8 µM) of 0.881, a relative viability ([6]; first compound 2.53 µM) of 0.991 and a relative viability ([6]; first compound 8 µM) of 0.811. The relative viability ([7]; first compound 0.253 µM) was 0.983, the relative viability ([7]; first compound 0.8 µM) was 0.982 and the relative viability ([7]; first compound 2.53 µM) was 0.913. The relative viability ([7]; first compound 8 µM) was 0.783, the relative viability ([8]; first compound 0.253 µM) was 0.919 and the relative viability ([8]; first compound 0.8 µM) was 0.871. It also gave a relative viability ([8]; first compound 2.53 µM) of 0.83, a relative viability ([8]; first compound 8 µM) of 0.681 and a relative viability ([9]; first compound 0.253 µM) of 0.743. For the same cell line, the relative viability ([9]; first compound 0.8 µM) was 0.805, the relative viability ([9]; first compound 2.53 µM) was 0.759 and the relative viability ([9]; first compound 8 µM) was 0.795. For the same cell line, the relative viability ([10]; first compound 0.253 µM) was 1.17, the relative viability ([10]; first compound 0.8 µM) was 1.1 and the relative viability ([10]; first compound 2.53 µM) was 1.26. It also gave a relative viability ([10]; first compound 8 µM) of 1.04, a relative viability ([11]; first compound 0.253 µM) of 0.653 and a relative viability ([11]; first compound 0.8 µM) of 0.611. The relative viability ([11]; first compound 2.53 µM) was 0.651, the relative viability ([11]; first compound 8 µM) was 0.639 and the relative viability ([12]; first compound 0.253 µM) was 0.808. The relative viability ([12]; first compound 0.8 µM) was 0.91, the relative viability ([12]; first compound 2.53 µM) was 0.95 and the relative viability ([12]; first compound 8 µM) was 0.885. For the same cell line, the relative viability ([13]; first compound 0.253 µM) was 0.538, the relative viability ([13]; first compound 0.8 µM) was 0.509 and the relative viability ([13]; first compound 2.53 µM) was 0.573. It also gave a relative viability ([13]; first compound 8 µM) of 0.542.
NCI-H1623 was tested, and the relative viability ([1]; 0.253 µM) was 0.922, the relative viability ([1]; 0.8 µM) was 0.992 and the relative viability ([1]; 2.53 µM) was 1.02. The relative viability ([1]; 8 µM) was 1.13, the relative viability ([3]; first compound 0.253 µM) was 0.518 and the relative viability ([3]; first compound 0.8 µM) was 0.589. It also gave a relative viability ([3]; first compound 2.53 µM) of 0.627, a relative viability ([3]; first compound 8 µM) of 0.595 and a relative viability ([14]; first compound 0.253 µM) of 0.405. For the same cell line, the relative viability ([14]; first compound 0.8 µM) was 0.442, the relative viability ([14]; first compound 2.53 µM) was 0.438 and the relative viability ([14]; first compound 8 µM) was 0.48. It also gave a relative viability ([4]; first compound 0.253 µM) of 0.856, a relative viability ([4]; first compound 0.8 µM) of 0.862 and a relative viability ([4]; first compound 2.53 µM) of 0.94. It also gave a relative viability ([4]; first compound 8 µM) of 0.939, a relative viability ([9]; first compound 0.253 µM) of 0.439 and a relative viability ([9]; first compound 0.8 µM) of 0.428. It also gave a relative viability ([9]; first compound 2.53 µM) of 0.455, a relative viability ([9]; first compound 8 µM) of 0.446 and a relative viability ([11]; first compound 0.253 µM) of 0.514. It also gave a relative viability ([11]; first compound 0.8 µM) of 0.59, a relative viability ([11]; first compound 2.53 µM) of 0.63 and a relative viability ([11]; first compound 8 µM) of 0.567. It also gave a relative viability ([13]; first compound 0.253 µM) of 0.454, a relative viability ([13]; first compound 0.8 µM) of 0.452 and a relative viability ([13]; first compound 2.53 µM) of 0.546. It also gave a relative viability ([13]; first compound 8 µM) of 0.473.
